Assay results from ChEMBL document CHEMBL1151900, “Steroidal bivalent ligands for the estrogen receptor: design, synthesis, characterization and binding affinities” (Bioorg Med Chem, 2009).

Tests used:
[1] = target: T1, Estrogen receptor (Homo sapiens) (UniProt P03372); assay: Displacement of [3H]estradiol from full-length human estrogen receptor alpha by radiometric assay relative to estradiol
T1 sequence (whole entry): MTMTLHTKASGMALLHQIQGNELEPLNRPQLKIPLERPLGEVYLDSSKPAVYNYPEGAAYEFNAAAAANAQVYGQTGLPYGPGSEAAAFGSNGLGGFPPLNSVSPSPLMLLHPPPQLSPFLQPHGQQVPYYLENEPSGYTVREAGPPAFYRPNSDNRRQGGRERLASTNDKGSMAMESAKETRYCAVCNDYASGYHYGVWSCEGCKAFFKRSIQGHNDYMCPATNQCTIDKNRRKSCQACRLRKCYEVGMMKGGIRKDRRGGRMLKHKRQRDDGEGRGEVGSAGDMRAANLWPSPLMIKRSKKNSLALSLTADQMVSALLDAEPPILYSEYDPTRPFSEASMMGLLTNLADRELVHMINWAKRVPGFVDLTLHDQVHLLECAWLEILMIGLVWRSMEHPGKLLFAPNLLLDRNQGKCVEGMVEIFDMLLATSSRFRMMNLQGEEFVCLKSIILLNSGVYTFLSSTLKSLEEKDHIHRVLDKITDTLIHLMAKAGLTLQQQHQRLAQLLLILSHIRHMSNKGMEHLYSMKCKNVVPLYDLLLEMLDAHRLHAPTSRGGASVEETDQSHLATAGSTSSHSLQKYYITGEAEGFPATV

[2] = target: Estrogen receptor beta (Homo sapiens) (UniProt Q92731); assay: Displacement of [3H]estradiol from full-length human estrogen receptor beta by radiometric assay relative to estradiol
Estrogen receptor beta (Homo sapiens), sequence (Q92731 whole entry): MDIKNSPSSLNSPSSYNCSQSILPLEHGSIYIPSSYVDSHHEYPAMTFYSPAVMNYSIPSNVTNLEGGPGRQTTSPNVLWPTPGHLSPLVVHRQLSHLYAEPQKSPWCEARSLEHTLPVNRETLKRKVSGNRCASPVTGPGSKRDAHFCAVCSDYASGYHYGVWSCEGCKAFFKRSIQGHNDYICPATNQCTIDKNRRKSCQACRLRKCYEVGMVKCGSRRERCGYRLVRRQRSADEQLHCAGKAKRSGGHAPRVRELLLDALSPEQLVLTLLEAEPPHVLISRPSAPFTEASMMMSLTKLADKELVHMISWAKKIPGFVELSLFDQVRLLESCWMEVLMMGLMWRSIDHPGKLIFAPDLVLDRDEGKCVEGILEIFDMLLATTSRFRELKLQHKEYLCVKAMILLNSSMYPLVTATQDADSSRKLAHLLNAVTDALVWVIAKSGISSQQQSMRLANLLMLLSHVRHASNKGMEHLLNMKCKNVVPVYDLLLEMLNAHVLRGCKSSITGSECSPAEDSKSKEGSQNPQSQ

RBA [1] | RBA [2] | Structure (SMILES)
2.3% | 0.69% | C[C@]12CC[C@@H]3c4ccc(O)cc4CC[C@H]3[C@@H]1CC[C@@]2(O)C#Cc1ccc(OCCCOCCCOCCCOCCCOCCCOc2ccc(C#C[C@]3(O)CC[C@H]4[C@@H]5CCc6cc(O)ccc6[C@H]5CC[C@@]43C)cc2)cc1
6.9% | 0.003% | C[C@]12CC[C@@H]3c4ccc(O)cc4CC[C@H]3[C@@H]1CC[C@@]2(O)C#Cc1ccc(OCCCOCCCOCCCOCCCOc2ccc(C#C[C@]3(O)CC[C@H]4[C@@H]5CCc6cc(O)ccc6[C@H]5CC[C@@]43C)cc2)cc1
0.9% | 0.38% | C[C@]12CC[C@@H]3c4ccc(O)cc4CC[C@H]3[C@@H]1CC[C@@]2(O)C#Cc1ccc(OCCCOCCCOc2ccc(C#C[C@]3(O)CC[C@H]4[C@@H]5CCc6cc(O)ccc6[C@H]5CC[C@@]43C)cc2)cc1
1.2% | 0.68% | C[C@]12CC[C@@H]3c4ccc(O)cc4CC[C@H]3[C@@H]1CC[C@@]2(O)C#Cc1ccc(OCCOCCOCCOCCOCCOCCOc2ccc(C#C[C@]3(O)CC[C@H]4[C@@H]5CCc6cc(O)ccc6[C@H]5CC[C@@]43C)cc2)cc1

Further lines, the compound ahead of its results:

Structure (SMILES) | RBA [1] | RBA [2]
C[C@]12CC[C@@H]3c4ccc(O)cc4CC[C@H]3[C@@H]1CC[C@@]2(O)C#Cc1ccc(OCCCOCCCOCCCOc2ccc(C#C[C@]3(O)CC[C@H]4[C@@H]5CCc6cc(O)ccc6[C@H]5CC[C@@]43C)cc2)cc1 | 2.1% | 0.53%
C[C@]12CC[C@@H]3c4ccc(O)cc4CC[C@H]3[C@@H]1CC[C@@]2(O)C#Cc1ccc(OCCCCOCCCCOCCCCOCCCCOc2ccc(C#C[C@]3(O)CC[C@H]4[C@@H]5CCc6cc(O)ccc6[C@H]5CC[C@@]43C)cc2)cc1 | 2.6% | 0.76%
C[C@]12CC[C@@H]3c4ccc(O)cc4CC[C@H]3[C@@H]1CC[C@@]2(O)C#Cc1ccc(OCCCCOCCCCOCCCCOc2ccc(C#C[C@]3(O)CC[C@H]4[C@@H]5CCc6cc(O)ccc6[C@H]5CC[C@@]43C)cc2)cc1 | 4.5% | 1.5%
C[C@]12CC[C@@H]3c4ccc(O)cc4CC[C@H]3[C@@H]1CC[C@@]2(O)C#Cc1ccc(OCCCCOCCCCOCCCCOCCCCOCCCOc2ccc(C#C[C@]3(O)CC[C@H]4[C@@H]5CCc6cc(O)ccc6[C@H]5CC[C@@]43C)cc2)cc1 | 1.6% | 0.22%
C[C@]12CC[C@@H]3c4ccc(O)cc4CC[C@H]3[C@@H]1CC[C@@]2(O)C#Cc1ccc(OCCCOCCCOCCCOCCCOCCCOCCCOc2ccc(C#C[C@]3(O)CC[C@H]4[C@@H]5CCc6cc(O)ccc6[C@H]5CC[C@@]43C)cc2)cc1 | 1.5% | 0.38%
C[C@]12CC[C@@H]3c4ccc(O)cc4CC[C@H]3[C@@H]1CC[C@@]2(O)C#Cc1ccc(OCCCCOCCCCOc2ccc(C#C[C@]3(O)CC[C@H]4[C@@H]5CCc6cc(O)ccc6[C@H]5CC[C@@]43C)cc2)cc1 | 1.8% | 0.82%
C[C@]12CC[C@@H]3c4ccc(O)cc4CC[C@H]3[C@@H]1CC[C@@]2(O)C#Cc1ccc(CNCCOCCOCCOCCOCCOCCNCc2ccc(C#C[C@]3(O)CC[C@H]4[C@@H]5CCc6cc(O)ccc6[C@H]5CC[C@@]43C)cc2)cc1 | 6.8% | 3.6%
